PubChem BioAssay (NCI)
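The concentration for 50% growth inhibition is given as GI50. TGI denotes the concentration required for complete inhibition of growth.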

Tests used:
Experiment in all cases: inhibition of tumour cell growth, NCI panel, 384-well format
OVCAR-3 ovarian = test system: OVCAR-3 ovarian
SR leukemia = test system: SR leukemia
NCI/ADR-RES ovarian = test system: NCI/ADR-RES ovarian
UO-31 renal = test system: UO-31 renal
HCT-15 colon = test system: HCT-15 colon
SK-MEL-28 melanoma = test system: SK-MEL-28 melanoma
KM12 colon = test system: KM12 colon
HL-60(TB) leukemia = test system: HL-60(TB) leukemia
OVCAR-5 ovarian = test system: OVCAR-5 ovarian
CAKI-1 renal = test system: CAKI-1 renal
LOX IMVI melanoma = test system: LOX IMVI melanoma
A498 renal = test system: A498 renal
SK-MEL-2 melanoma = test system: SK-MEL-2 melanoma
K-562 leukemia = test system: K-562 leukemia
OVCAR-4 ovarian = test system: OVCAR-4 ovarian
SNB-19 CNS = test system: SNB-19 CNS
SF-539 CNS = test system: SF-539 CNS
NCI-H226 lung = test system: NCI-H226 lung
T-47D breast = test system: T-47D breast
HOP-62 NSCLC = test system: HOP-62 NSCLC
SF-268 CNS = test system: SF-268 CNS
UACC-257 melanoma = test system: UACC-257 melanoma
MOLT-4 leukemia = test system: MOLT-4 leukemia
SF-295 CNS = test system: SF-295 CNS
U251 glioblastoma = test system: U251 glioblastoma
SW-620 colon = test system: SW-620 colon
M14 melanoma = test system: M14 melanoma
A549 NSCLC = test system: A549 NSCLC
PC-3 prostate = test system: PC-3 prostate
TK-10 renal = test system: TK-10 renal
DU-145 prostate = test system: DU-145 prostate
OVCAR-8 ovarian = test system: OVCAR-8 ovarian
NCI-H522 lung = test system: NCI-H522 lung
MALME-3M melanoma = test system: MALME-3M melanoma
HOP-92 NSCLC = test system: HOP-92 NSCLC
RXF 393 renal = test system: RXF 393 renal
NCI-H322M lung = test system: NCI-H322M lung
MDA-MB-468 breast = test system: MDA-MB-468 breast
MCF7 breast = test system: MCF7 breast
UACC-62 melanoma = test system: UACC-62 melanoma
HCC-2998 colon = test system: HCC-2998 colon
SN12C renal = test system: SN12C renal
IGROV1 ovarian = test system: IGROV1 ovarian
COLO 205 colon = test system: COLO 205 colon
HT29 colon = test system: HT29 colon
MDA-MB-435 melanoma = test system: MDA-MB-435 melanoma
786-0 renal = test system: 786-0 renal
NCI-H23 lung = test system: NCI-H23 lung
SK-OV-3 ovarian = test system: SK-OV-3 ovarian
SK-MEL-5 melanoma = test system: SK-MEL-5 melanoma
ACHN renal = test system: ACHN renal
HCT-116 colon = test system: HCT-116 colon
MDA-MB-231 breast = test system: MDA-MB-231 breast
NCI-H460 NSCLC = test system: NCI-H460 NSCLC
BT-549 breast = test system: BT-549 breast
CCRF-CEM leukemia = test system: CCRF-CEM leukemia

`CN(c1ccc(C#N)c(Cl)c1)C1CCC(NC(=O)c2ccc(N3CCN(C4CN(c5ccc6c(c5)C(=O)N(C5CCC(=O)NC5=O)C6=O)C4)CC3)cc2)CC1` (configuration not stated) was tested, and the GI50 (OVCAR-3 ovarian) was over 100 µM, the TGI (OVCAR-3 ovarian) was over 100 µM and the GI50 (SR leukemia) was over 100 µM. It also gave a TGI (SR leukemia) of over 100 µM, a GI50 (NCI/ADR-RES ovarian) of over 100 µM and a TGI (NCI/ADR-RES ovarian) of over 100 µM. It also gave a GI50 (UO-31 renal) of over 100 µM, a TGI (UO-31 renal) of over 100 µM and a GI50 (HCT-15 colon) of over 100 µM. It also gave a TGI (HCT-15 colon) of over 100 µM, a GI50 (SK-MEL-28 melanoma) of over 100 µM and a TGI (SK-MEL-28 melanoma) of over 100 µM. For the same compound, the GI50 (KM12 colon) was over 100 µM, the TGI (KM12 colon) was over 100 µM and the GI50 (HL-60(TB) leukemia) was over 100 µM. For the same compound, the TGI (HL-60(TB) leukemia) was over 100 µM, the GI50 (OVCAR-5 ovarian) was over 100 µM and the TGI (OVCAR-5 ovarian) was over 100 µM. The GI50 (CAKI-1 renal) was over 100 µM, the TGI (CAKI-1 renal) was over 100 µM and the GI50 (LOX IMVI melanoma) was over 100 µM. The TGI (LOX IMVI melanoma) was over 100 µM, the GI50 (A498 renal) was over 100 µM and the TGI (A498 renal) was over 100 µM. The GI50 (SK-MEL-2 melanoma) was over 100 µM, the TGI (SK-MEL-2 melanoma) was over 100 µM and the GI50 (K-562 leukemia) was over 100 µM. The TGI (K-562 leukemia) was over 100 µM, the GI50 (OVCAR-4 ovarian) was over 100 µM and the TGI (OVCAR-4 ovarian) was over 100 µM. It also gave a GI50 (SNB-19 CNS) of over 100 µM, a TGI (SNB-19 CNS) of over 100 µM and a GI50 (SF-539 CNS) of over 100 µM. For the same compound, the TGI (SF-539 CNS) was over 100 µM, the GI50 (NCI-H226 lung) was over 100 µM and the TGI (NCI-H226 lung) was over 100 µM. It also gave a GI50 (T-47D breast) of over 100 µM, a TGI (T-47D breast) of over 100 µM and a GI50 (HOP-62 NSCLC) of over 100 µM. It also gave a TGI (HOP-62 NSCLC) of over 100 µM, a GI50 (SF-268 CNS) of over 100 µM and a TGI (SF-268 CNS) of over 100 µM. The GI50 (UACC-257 melanoma) was over 100 µM, the TGI (UACC-257 melanoma) was over 100 µM and the GI50 (MOLT-4 leukemia) was over 100 µM. It also gave a TGI (MOLT-4 leukemia) of over 100 µM, a GI50 (SF-295 CNS) of over 100 µM and a TGI (SF-295 CNS) of over 100 µM. It also gave a GI50 (U251 glioblastoma) of over 100 µM, a TGI (U251 glioblastoma) of over 100 µM and a GI50 (SW-620 colon) of over 100 µM. The TGI (SW-620 colon) was over 100 µM, the GI50 (M14 melanoma) was over 100 µM and the TGI (M14 melanoma) was over 100 µM. The GI50 (A549 NSCLC) was over 100 µM, the TGI (A549 NSCLC) was over 100 µM and the GI50 (PC-3 prostate) was over 100 µM. It also gave a TGI (PC-3 prostate) of over 100 µM, a GI50 (TK-10 renal) of over 100 µM and a TGI (TK-10 renal) of over 100 µM. The GI50 (DU-145 prostate) was over 100 µM, the TGI (DU-145 prostate) was over 100 µM and the GI50 (OVCAR-8 ovarian) was over 100 µM. The TGI (OVCAR-8 ovarian) was over 100 µM, the GI50 (NCI-H522 lung) was over 100 µM and the TGI (NCI-H522 lung) was over 100 µM. For the same compound, the GI50 (MALME-3M melanoma) was over 100 µM, the TGI (MALME-3M melanoma) was over 100 µM and the GI50 (HOP-92 NSCLC) was over 100 µM. It also gave a TGI (HOP-92 NSCLC) of over 100 µM, a GI50 (RXF 393 renal) of over 100 µM and a TGI (RXF 393 renal) of over 100 µM. For the same compound, the GI50 (NCI-H322M lung) was over 100 µM, the TGI (NCI-H322M lung) was over 100 µM and the GI50 (MDA-MB-468 breast) was over 100 µM. The TGI (MDA-MB-468 breast) was over 100 µM, the GI50 (MCF7 breast) was over 100 µM and the TGI (MCF7 breast) was over 100 µM. The GI50 (UACC-62 melanoma) was over 100 µM, the TGI (UACC-62 melanoma) was over 100 µM and the GI50 (HCC-2998 colon) was over 100 µM. The TGI (HCC-2998 colon) was over 100 µM, the GI50 (SN12C renal) was over 100 µM and the TGI (SN12C renal) was over 100 µM. The GI50 (IGROV1 ovarian) was over 100 µM, the TGI (IGROV1 ovarian) was over 100 µM and the GI50 (COLO 205 colon) was over 100 µM. It also gave a TGI (COLO 205 colon) of over 100 µM, a GI50 (HT29 colon) of over 100 µM and a TGI (HT29 colon) of over 100 µM. The GI50 (MDA-MB-435 melanoma) was over 100 µM, the TGI (MDA-MB-435 melanoma) was over 100 µM and the GI50 ([…]-0 renal) was over 100 µM. For the same compound, the TGI (786-0 renal) was over 100 µM, the GI50 (NCI-H23 lung) was over 100 µM and the TGI (NCI-H23 lung) was over 100 µM. It also gave a GI50 (SK-OV-3 ovarian) of over 100 µM, a TGI (SK-OV-3 ovarian) of over 100 µM and a GI50 (SK-MEL-5 melanoma) of over 100 µM. The TGI (SK-MEL-5 melanoma) was over 100 µM, the GI50 (ACHN renal) was over 100 µM and the TGI (ACHN renal) was over 100 µM. The GI50 (HCT-116 colon) was over 100 µM, the TGI (HCT-116 colon) was over 100 µM and the GI50 (MDA-MB-231 breast) was over 100 µM. The TGI (MDA-MB-231 breast) was over 100 µM, the GI50 (NCI-H460 NSCLC) was over 100 µM and the TGI (NCI-H460 NSCLC) was over 100 µM. The GI50 (BT-549 breast) was over 100 µM, the TGI (BT-549 breast) was over 100 µM and the GI50 (CCRF-CEM leukemia) was over 100 µM. The TGI (CCRF-CEM leukemia) was over 100 µM.
